Patent US10227350B2 (Gilead Sciences, Inc., priority 2016, dated 2019)

Target: PI3Kβ (Homo sapiens (Human), UniProt P42338)
Assay: TR-FRET enzymatic activity assay, PI3Kβ
Format: biochemical
Details: 2× Km ATP, 2 μM PIP2, 30 minutes at 25° C., read-out: IC50-PIP-Beta
Method: The compounds of formula (I) were characterized for their enzymatic activity against the PI3K isoforms. The activities were measured using a time-resolved fluorescence resonance energy transfer (TR-FRET) assay. TR-FRET monitored the formation of 3,4,5-inositol triphosphate molecule that competed with fluorescently labeled PIPS for binding to the GRP-1 pleckstrin homology domain protein.
Class I PI3K isoforms were expressed and purified as heterodimeric recombinant proteins. All assay reagents and buffers for the TR-FRET assay were purchased from Millipore. […] The compounds were added to the assay solution and incubated for 30 minutes at 25° C.

PI3Kβ, sequence (P42338 whole entry): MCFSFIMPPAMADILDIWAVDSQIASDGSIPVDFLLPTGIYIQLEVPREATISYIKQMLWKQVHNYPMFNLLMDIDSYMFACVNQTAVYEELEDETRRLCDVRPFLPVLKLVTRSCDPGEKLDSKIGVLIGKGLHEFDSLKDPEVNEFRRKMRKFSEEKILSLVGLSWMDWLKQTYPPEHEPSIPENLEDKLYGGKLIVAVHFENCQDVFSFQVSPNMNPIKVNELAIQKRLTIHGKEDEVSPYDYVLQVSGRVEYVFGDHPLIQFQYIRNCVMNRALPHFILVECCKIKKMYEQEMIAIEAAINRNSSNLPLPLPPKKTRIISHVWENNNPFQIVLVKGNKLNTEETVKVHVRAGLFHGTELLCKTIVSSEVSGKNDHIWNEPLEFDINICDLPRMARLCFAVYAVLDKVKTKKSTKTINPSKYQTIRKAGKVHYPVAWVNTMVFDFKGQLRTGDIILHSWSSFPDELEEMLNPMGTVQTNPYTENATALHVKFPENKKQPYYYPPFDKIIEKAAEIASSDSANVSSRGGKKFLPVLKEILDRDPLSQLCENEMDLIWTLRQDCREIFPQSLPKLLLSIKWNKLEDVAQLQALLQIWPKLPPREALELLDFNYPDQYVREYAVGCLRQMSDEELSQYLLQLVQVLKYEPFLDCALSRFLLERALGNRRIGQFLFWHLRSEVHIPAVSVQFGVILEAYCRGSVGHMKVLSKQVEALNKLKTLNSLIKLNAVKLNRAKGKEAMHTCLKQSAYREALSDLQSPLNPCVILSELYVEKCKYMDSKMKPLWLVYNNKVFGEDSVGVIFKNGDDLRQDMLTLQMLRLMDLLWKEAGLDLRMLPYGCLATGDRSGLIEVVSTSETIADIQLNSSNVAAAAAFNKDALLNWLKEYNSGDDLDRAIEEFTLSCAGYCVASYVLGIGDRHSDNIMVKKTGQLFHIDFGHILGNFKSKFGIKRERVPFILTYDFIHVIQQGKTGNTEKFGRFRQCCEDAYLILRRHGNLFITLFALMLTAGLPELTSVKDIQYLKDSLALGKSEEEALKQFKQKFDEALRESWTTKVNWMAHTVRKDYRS
PI3Kβ, sequence (P27986 whole entry partner): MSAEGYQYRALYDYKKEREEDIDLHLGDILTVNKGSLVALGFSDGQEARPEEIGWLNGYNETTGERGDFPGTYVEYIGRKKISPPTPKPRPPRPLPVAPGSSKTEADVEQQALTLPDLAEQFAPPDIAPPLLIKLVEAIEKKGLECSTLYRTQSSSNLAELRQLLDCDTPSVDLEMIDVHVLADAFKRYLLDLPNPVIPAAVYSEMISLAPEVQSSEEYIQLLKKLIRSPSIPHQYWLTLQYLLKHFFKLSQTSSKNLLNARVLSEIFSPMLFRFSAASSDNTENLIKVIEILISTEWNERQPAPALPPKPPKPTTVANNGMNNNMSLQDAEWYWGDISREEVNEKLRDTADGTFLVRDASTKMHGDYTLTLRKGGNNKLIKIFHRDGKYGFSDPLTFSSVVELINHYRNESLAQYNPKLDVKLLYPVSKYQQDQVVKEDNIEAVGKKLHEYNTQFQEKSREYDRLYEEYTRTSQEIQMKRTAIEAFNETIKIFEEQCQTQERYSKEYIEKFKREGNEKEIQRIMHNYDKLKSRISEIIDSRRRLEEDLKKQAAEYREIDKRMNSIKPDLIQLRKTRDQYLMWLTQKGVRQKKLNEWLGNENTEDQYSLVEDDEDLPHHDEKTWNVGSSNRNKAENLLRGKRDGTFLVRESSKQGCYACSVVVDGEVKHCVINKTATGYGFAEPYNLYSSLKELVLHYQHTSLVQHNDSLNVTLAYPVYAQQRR

| IC50 [nM] | SMILES |
| --- | --- |
| 30 | Cc1nc2c(-c3nnc[nH]3)cc(-c3ccnc(C(F)F)c3)cc2n1-c1ccnc2c(F)ccc(F)c12 [Example 43, 4-(6-(2-(difluoromethyl)pyridin-4-yl)-2-methyl-4-(4H-1,2,4-triazol-3-yl)-1H-benzo[d]imidazol-1-yl)-5,8-difluoroquinoline] |
| 29 | Cc1nc2c(-c3nnc[nH]3)cc(-c3ccnc(N)c3F)cc2n1-c1c(Cl)cnc2c(F)cccc12 (single isomer, unassigned) [Example 107, 4-[3-(3-chloro-8-fluoroquinolin-4-yl)-2-methyl-7-(4H-1,2,4-triazol-3-yl)benzimidazol-5-yl]-3-fluoropyridin-2-amine] |
| 8 | Cc1nc2c(-c3nnc[nH]3)cc(-c3ccnc(C#N)c3)cc2n1-c1ccnc2c(F)ccc(Cl)c12 (single isomer, unassigned) [Example 123, 4-(1-(5-chloro-8-fluoroquinolin-4-yl)-2-methyl-4-(4H-1,2,4-triazol-3-yl)-1H-benzo[d]imidazol-6-yl)picolinonitrile] |
| 110 | Cc1nc2c(-c3nnc[nH]3)cc(-c3ccnc(C#N)c3)cc2n1-c1ccnc2cccc(Cl)c12 (single isomer, unassigned) [Example 125, 4-(1-(5-chloroquinolin-4-yl)-2-methyl-4-(4H-1,2,4-triazol-3-yl)-1H-benzo[d]imidazol-6-yl)picolinonitrile] |
| 10 | Fc1nccc(-c2cc(-c3nnc[nH]3)c3ncn(-c4cc(N5CCNCC5)nc5ccccc45)c3c2)c1F [Example 164, 4-(6-(2,3-difluoropyridin-4-yl)-4-(4H-1,2,4-triazol-3-yl)-1H-benzo[d]imidazol-1-yl)-2-(piperazin-1-yl)quinoline] |
| 13 | Cc1nc2c(C(N)=O)cc(-c3ccnc(N)c3F)cc2n1-c1ccnc2c(F)ccc(F)c12 [Example 26, 6-(2-amino-3-fluoropyridin-4-yl)-1-(5,8-difluoroquinolin-4-yl)-2-methyl-1H-benzo[d]imidazole-4-carboxamide] |
| 110 | Nc1nccc(-c2cc(-c3nnc[nH]3)c3nc(C4CC4)n(-c4ccnc5c(F)cccc45)c3c2)c1F [Example 88, 4-[2-cyclopropyl-3-(8-fluoroquinolin-4-yl)-7-(4H-1,2,4-triazol-3-yl)benzimidazol-5-yl]-3-fluoropyridin-2-amine] |
| 1400 | CNc1nccc(-c2cc(-c3nnc[nH]3)c3nc(C)n(-c4ccnc5c(F)ccc(F)c45)c3c2)c1F [Example 77, 4-[3-(5,8-difluoroquinolin-4-yl)-2-methyl-7-(4H-1,2,4-triazol-3-yl)benzimidazol-5-yl]-3-fluoro-N-methylpyridin-2-amine] |
| 540 | Cc1nc2c(-c3nnc[nH]3)cc(-c3ccncc3)cc2n1-c1ccnc2c(F)ccc(F)c12 (single isomer, unassigned) [Example 140, 5,8-difluoro-4-(2-methyl-6-(pyridin-4-yl)-4-(4H-1,2,4-triazol-3-yl)-1H-benzo[d]imidazol-1-yl)quinoline] |
| 5 | Cc1nc2c(-c3nnc[nH]3)cc(-c3ccnc(N)c3F)cc2n1-c1ccnc2cccc(F)c12 [Example 93, 3-fluoro-4-[3-(5-fluoroquinolin-4-yl)-2-methyl-7-(4H-1,2,4-triazol-3-yl)benzimidazol-5-yl]pyridin-2-amine] |
| 950 | Cc1cccc2nccc(-n3c(C)nc4c(C(N)=O)cc(-c5ccncc5)cc43)c12 [Example 9, 2-methyl-1-(5-methylquinolin-4-yl)-6-pyridin-4-ylbenzimidazole-4-carboxamide] |
| 120 | CNc1cc(-c2cc(-c3nnc[nH]3)c3nc(C)n(-c4ccnc5c(F)ccc(F)c45)c3c2)c(F)cn1 [Example 82, 4-[3-(5,8-difluoroquinolin-4-yl)-2-methyl-7-(4H-1,2,4-triazol-3-yl)benzimidazol-5-yl]-5-fluoro-N-methylpyridin-2-amine] |
| 210 | Cc1nc2c(-c3nnc[nH]3)cc(-c3ccnc(N)c3)cc2n1-c1ccnc2c(F)ccc(F)c12 (single isomer, unassigned) [Example 103, 4-(1-(5,8-difluoroquinolin-4-yl)-2-methyl-4-(4H-1,2,4-triazol-3-yl)-1H-benzo[d]imidazol-6-yl)pyridin-2-amine] |
| 9 | Cc1nc2c(-c3nnc[nH]3)cc(-c3ccnc(N)c3)cc2n1-c1ccnc2c(F)ccc(F)c12 (single isomer, unassigned) [Example 104, 4-(1-(5,8-difluoroquinolin-4-yl)-2-methyl-4-(4H-1,2,4-triazol-3-yl)-1H-benzo[d]imidazol-6-yl)pyridin-2-amine] |
| 80 | Cc1nnc(-c2cc(-c3ccnc(C#N)c3)cc3c2nc(C)n3-c2ccnc3c(F)ccc(F)c23)[nH]1 [Example 151, 4-(1-(5,8-difluoroquinolin-4-yl)-2-methyl-4-(5-methyl-4H-1,2,4-triazol-3-yl)-1H-benzo[d]imidazol-6-yl)picolinonitrile] |
| 8 | CCc1nc2c(-c3nnc[nH]3)cc(-c3ccnc(N)c3F)cc2n1-c1ccnc2cccc(F)c12 [Example 94, 4-[2-ethyl-3-(5-fluoroquinolin-4-yl)-7-(4H-1,2,4-triazol-3-yl)benzimidazol-5-yl]-3-fluoropyridin-2-amine] |

| IC50 [nM] | SMILES |
| --- | --- |
| 29 | Cc1nc2c(-c3nnc[nH]3)cc(-c3ccnc(N)c3F)cc2n1-c1ccnc2c(F)ccc(Cl)c12 [Example 99, 4-[3-(5-chloro-8-fluoroquinolin-4-yl)-2-methyl-7-(4H-1,2,4-triazol-3-yl)benzimidazol-5-yl]-3-fluoropyridin-2-amine] |
| 9 | Cc1nc2c(-c3nnc[nH]3)cc(-c3ccnc(N)n3)cc2n1-c1ccnc2c(Cl)cccc12 [Example 56, 4-[3-(8-chloroquinolin-4-yl)-2-methyl-7-(4H-1,2,4-triazol-3-yl)benzimidazol-5-yl]pyrimidin-2-amine] |
| 47 | Nc1cc(-c2cc(-c3nnc[nH]3)c3nc(C4CC4)n(-c4ccnc5c(F)ccc(F)c45)c3c2)ccn1 [Example 69, 4-[2-cyclopropyl-3-(5,8-difluoroquinolin-4-yl)-7-(4H-1,2,4-triazol-3-yl)benzimidazol-5-yl]pyridin-2-amine] |
| 8 | Nc1nccc(-c2cc(-c3nnc[nH]3)c3nc(C4CC4)n(-c4ccnc5c(Cl)cccc45)c3c2)c1F [Example 79, 4-[3-(8-chloroquinolin-4-yl)-2-cyclopropyl-7-(4H-1,2,4-triazol-3-yl)benzimidazol-5-yl]-3-fluoropyridin-2-amine] |
| 6 | Cc1nc2c(-c3nnc[nH]3)cc(-c3ccnc(C#N)c3)cc2n1-c1ccnc2cc(F)cc(F)c12 [Example 143, 4-(1-(5,7-difluoroquinolin-4-yl)-2-methyl-4-(4H-1,2,4-triazol-3-yl)-1H-benzo[d]imidazol-6-yl)picolinonitrile] |
| 290 | Cc1nc2c(-c3nnc[nH]3)cc(-c3cc(N)nc(N)n3)cc2n1-c1ccnc2c(Cl)cccc12 [Example 57, 6-[3-(8-chloroquinolin-4-yl)-2-methyl-7-(4H-1,2,4-triazol-3-yl)benzimidazol-5-yl]pyrimidine-2,4-diamine] |
| 35 | Cc1nc2c(-c3nnc[nH]3)cc(-c3ccnc(N)c3F)cc2n1-c1ccnc2cc(F)cc(F)c12 (single isomer, unassigned) [Example 118] |
| 7 | Cc1nc2c(-c3nnc[nH]3)cc(-c3ccncc3)cc2n1-c1ccnc2c(Cl)cccc12 [Example 38, 8-chloro-4-[2-methyl-6-pyridin-4-yl-4-(4H-1,2,4-triazol-3-yl)benzimidazol-1-yl]quinoline] |
| 13 | Cc1nnc(-c2cc(-c3ccnc(C#N)c3)cc3c2nc(C)n3-c2ccnc3c(Cl)ccc(F)c23)[nH]1 [Example 150, 4-(1-(8-chloro-5-fluoroquinolin-4-yl)-2-methyl-4-(5-methyl-4H-1,2,4-triazol-3-yl)-1H-benzo[d]imidazol-6-yl)picolinonitrile] |
| 6 | Cc1nnc(-c2cc(-c3ccnc(N)c3F)cc3c2nc(C)n3-c2ccnc3c(Cl)ccc(F)c23)[nH]1 [Example 98, 4-[3-(8-chloro-5-fluoroquinolin-4-yl)-2-methyl-7-(5-methyl-4H-1,2,4-triazol-3-yl)benzimidazol-5-yl]-3-fluoropyridin-2-amine] |
| 50 | Cc1nc2c(-c3nnc[nH]3)cc(-c3cc(N)ncc3F)cc2n1-c1ccnc2c(F)ccc(F)c12 [Example 76, 4-[3-(5,8-difluoroquinolin-4-yl)-2-methyl-7-(4H-1,2,4-triazol-3-yl)benzimidazol-5-yl]-5-fluoropyridin-2-amine] |
| 4 | Cc1nc2c(-c3nnc[nH]3)cc(-c3ccnc(N)c3F)cc2n1-c1ccnc2c(Cl)ccc(Cl)c12 (single isomer, unassigned) [Example 120, 4-(1-(5,8-dichloroquinolin-4-yl)-2-methyl-4-(4H-1,2,4-triazol-3-yl)-1H-benzo[d]imidazol-6-yl)-3-fluoropyridin-2-amine] |
| 780 | Cc1nc2c(-c3nnc[nH]3)cc(-c3ccnc(C#N)c3)cc2n1-c1ccnc2cccc(Cl)c12 (single isomer, unassigned) [Example 126, 4-(1-(5-chloroquinolin-4-yl)-2-methyl-4-(4H-1,2,4-triazol-3-yl)-1H-benzo[d]imidazol-6-yl)picolinonitrile] |
| 5 | Clc1cccc2c(-n3cnc4c(-c5ncn[nH]5)cc(-c5ccncc5)cc43)ccnc12 [Example 27, 8-chloro-4-[6-pyridin-4-yl-4-(1H-1,2,4-triazol-5-yl)benzimidazol-1-yl]quinoline] |
| 35 | Nc1cc(-c2cc(-c3nnc[nH]3)c3nc(C4COC4)n(-c4ccnc5c(Cl)ccc(F)c45)c3c2)ccn1 [Example 68, 4-[3-(8-chloro-5-fluoroquinolin-4-yl)-2-(oxetan-3-yl)-7-(4H-1,2,4-triazol-3-yl)benzimidazol-5-yl]pyridin-2-amine] |
